# Values joined by “and” are separate entries in the source; they are usually repeats but may differ in a detail not shown here. Equal values may be shown once. Numbers after ± are expanded uncertainties.
# Conditions: Liquid
vapor or sublimation pressure (313.15 K),vapor or sublimation pressure (308.15 K) [kPa],SMILES
9.586 ± 0.17 kPa,,CCCOC(C)=O [propyl ethanoate]
10.6 ± 0.17 kPa,,CCOC(=O)CC [ethyl propanoate]
25.08 ± 0.2 kPa,,CCOC(C)=O [ethyl acetate]
53.81 ± 0.24 kPa,,COC(C)=O [methyl ethanoate]
,114.88 ± 0.35,COC=O [methyl methanoate]

SMILES,vapor or sublimation pressure (313.15 K),vapor or sublimation pressure (308.15 K) [kPa]
CCOCCO [2-ethoxyethan-1-ol],1.864 ± 0.16 kPa and 1.803 ± 0.16 kPa and 1.829 ± 0.16 kPa,1.303 ± 0.16
